Measured values as given in US8188108B2, “Pharmaceutical composition” (priority 2002, dated 2012).
Where two headings read alike, the source gives them in different places.

Tests used:
clinical = settings: both, human, in vivo; for AUC(0-t) / AUC(0-inf) / Cmax: po, Least-Squares Means (LSM); for AUC(0-inf): AUCinf
[1] = plasma, fed vs fasting, Lortab + Colace co-administered, ln-transformed
[2] = Form A, plasma, Treatment A: one 10 mg/500 mg Lortab tablet + one 50 mg Colace capsule, single oral dose, fasting
[3] = Form A, plasma, Treatment A: Lortab 10 mg/500 mg + Colace 50 mg, single oral dose, fasting
[4] = Form C, plasma, Treatment C: Lortab 10 mg/500 mg + Colace 50 mg, single oral dose, fed
[5] = plasma, fed vs fasting, Lortab administered alone, ln-transformed
[6] = plasma, with docusate vs without, fasting, ln-transformed
[7] = plasma, with docusate vs without, fed, ln-transformed
[8] = Form B, plasma, Treatment B: Lortab 10 mg/500 mg alone, single oral dose, fasting
[9] = Form D, plasma, Treatment D: Lortab 10 mg/500 mg alone, single oral dose, fed

Compound: CCCCC(CC)COC(=O)CC(C(=O)OCC(CC)CCCC)S(=O)(=O)O (stereo not shown) [Docusate, dioctyl sodium sulphosuccinate]
- absorption of docusate (measurable plasma concentrations) (50 mg Colace capsule oral, throughout the period of blood sampling): absorbed in measurable amounts
- effect of food on Cmax (rate of exposure) (fed vs fasting): not significantly affected by food
- AUC 0-t, Ratio of LSM (C/A) [1]: 124.2%
- AUCinf, Ratio of LSM (C/A) [1]: 128.8%
- Cmax, Ratio of LSM (C/A) [1]: 104.4%
- Cmax, Ratio of LSM (C/A) (plasma, fed vs fasting, Lortab + Colace co-administered, ln-transformed, listed as docusate): 104.5%
- AUC(0-t) (clinical; [2]): 1170 ng·h/mL
- AUC(0-inf) (clinical; [3]): 1170 ng·h/mL
- AUC(0-inf) (clinical; [4]): 1510 ng·h/mL
- Cmax (clinical; [3]): 608 ng/mL
- Cmax (clinical; [4]): 635 ng/mL

Compound: COc1ccc2c3c1O[C@H]1C(=O)CC[C@H]4[C@@H](C2)N(C)CC[C@]314 [Hydrocodone, hydrocodone]
- AUC 0-t, Ratio of LSM (A/B) (both, human, in vivo): 102.5%
- AUC 0-t, Ratio of LSM (C/A) (both, human, in vivo): 105.0%
- AUC 0-t, Ratio of LSM (C/D) (both, human, in vivo): 97.4%
- AUC 0-t, Ratio of LSM (D/B) (both, human, in vivo): 110.6%
- AUCinf, Ratio of LSM (A/B) (both, human, in vivo): 107.2%
- AUCinf, Ratio of LSM (C/A) (both, human, in vivo): 105.0%
- AUCinf, Ratio of LSM (C/D) (both, human, in vivo): 97.4%
- AUCinf, Ratio of LSM (D/B) (both, human, in vivo): 115.6%
- Cmax, Ratio of LSM (A/B) (both, human, in vivo): 100.2%
- Cmax, Ratio of LSM (C/A) (both, human, in vivo): 91.7%
- Cmax, Ratio of LSM (C/D) (both, human, in vivo): 97.0%
- Cmax, Ratio of LSM (D/B) (both, human, in vivo): 94.6%
- effect of docusate on the pharmacokinetics (in vivo): no significant effect
- effect of food on Cmax (rate of exposure) (in vivo): no significant effect
- effect of food on extent of exposure (AUC) (in vivo): no significant effect
- Tmax (clinical): ~1 h
- AUC(0-t) (clinical; Form A): 135 ng·h/mL
- AUC(0-t) (clinical; Form B): 132 ng·h/mL
- AUC(0-t) (clinical; Form C): 142 ng·h/mL
- AUC(0-t) (clinical; Form D): 146 ng·h/mL
- AUC(0-inf) (clinical; Form A): 162 ng·h/mL
- AUC(0-inf) (clinical; Form B): 151 ng·h/mL
- AUC(0-inf) (clinical; Form C): 170 ng·h/mL
- AUC(0-inf) (clinical; Form D): 175 ng·h/mL
- Cmax (clinical; Form A): 24.3 ng/mL
- Cmax (clinical; Form B): 24.2 ng/mL
- Cmax (clinical; Form C): 22.3 ng/mL
- Cmax (clinical; Form D): 22.9 ng/mL

Compound: CC(=O)Nc1ccc(O)cc1 [Acetaminophen, acetaminophen]
- effect of food on Cmax (rate of exposure) (fed vs fasting): lowering the Cmax
- AUC 0-t, Least-Squares Means (LSM), Form D (plasma, Treatment D: one 10 mg/500 mg Lortab tablet alone, single oral dose, fed (30 min after start of standard breakfast)): 19545.72 ng·h/mL
- AUC 0-t, Ratio of LSM (C/A) [1]: 93.5%
- AUCinf, Ratio of LSM (C/A) [1]: 94.8%
- Cmax, Ratio of LSM (C/A) [1]: 72.3%
- AUC 0-t, Ratio of LSM (D/B) [5]: 94.3%
- AUCinf, Ratio of LSM (D/B) [5]: 97.3%
- Cmax, Ratio of LSM (D/B) [5]: 67.9%
- AUC 0-t, Ratio of LSM (A/B) [6]: 101.4%
- AUCinf, Ratio of LSM (A/B) [6]: 102.9%
- Cmax, Ratio of LSM (A/B) [6]: 92.0%
- AUC 0-t, Ratio of LSM (C/D) [7]: 100.5%
- AUCinf, Ratio of LSM (C/D) [7]: 100.3%
- Cmax, Ratio of LSM (C/D) [7]: 97.9%
- effect of docusate on the pharmacokinetics (under fed and fasted conditions): no significant effect
- AUC(0-t) (clinical; [2]): 21000 ng·h/mL
- AUC(0-t) (clinical; Form B, plasma, Treatment B: one 10 mg/500 mg Lortab tablet alone, single oral dose, fasting): 20700 ng·h/mL
- AUC(0-inf) (clinical; [3]): 22700 ng·h/mL
- AUC(0-inf) (clinical; [8]): 22000 ng·h/mL
- AUC(0-inf) (clinical; [4]): 21500 ng·h/mL
- AUC(0-inf) (clinical; [9]): 21400 ng·h/mL
- Cmax (clinical; [3]): 5450 ng/mL
- Cmax (clinical; [8]): 5920 ng/mL
- Cmax (clinical; [4]): 3940 ng/mL
- Cmax (clinical; [9]): 4020 ng/mL
